What was measured:
normal canines = experiment: Hemodynamic efficacy in normal canines (pressure-volume loop analysis); type: in vivo, beagle dogs; conditions: i.v. infusion, Dose Rate (μmol/kg/min): CXL-1020 100, (1) 50, (2) 100, (83) 65, (84) 77
Description: The cardiovascular effects of nitroxyl donors were examined by means of pressure-volume (PV) curve (loops) analysis in conscious, sling-restrained beagle dogs. Animals were allowed free access to drinking water and a commercial canine diet under standard laboratory conditions. Fluorescent lighting was provided via an automatic timer for approximately 12 hours per day. On occasion, the dark cycle was interrupted intermittently due to study-related activities. Temperature and humidity were monitored and recorded daily and maintained to the maximum extent possible between 64° F. and 84° F. and 30% to 70%, respectively. The dogs were acclimated for a period of at least 1 week prior to surgery. Following surgery and recovery the animals were acclimated to sling restraint for a period up to 4.5 hours. Animals were fasted overnight prior to surgery. An indwelling venous catheter was placed in peripheral vein (e.g., cephalic) for administration of anesthetic. General anesthesia was induced intravenously (bolus) with buprenorphine (about 0.015 mg/kg) followed by an intravenous bolus of propofol (about 6 mg/kg). Additionally, a prophylactic antibiotic (cefazolin 20 to 50 mg/kg via i.v.) was given upon induction. […] Anesthesia was maintained with inhaled isoflurane (1% to 3%). Once a stable (surgical) plane of anesthesia had been established, a left-thoracotomy was performed (under strict aseptic conditions) and each animal was chronically instrumented with sono-micrometry crystals providing left-ventricular (LV) dimensions/volume. Additionally, a fluid-filled catheter and a solid-state monometer were placed in the left ventricle for pressure monitoring. A fluid-filled catheters was placed in the right ventricle (RV) and the aorta (Ao) for pressure monitoring/test article administration. […] The catheters/wires were aseptically tunneled and externalized between the scapulae. Over the course of the study, fluid-filled catheters were regularly (at least once weekly) flushed with a locking-solution in order to prevent both clotting and bacterial growth (2-3 mL of Taurolidine-Citrate solution, TCS-04; Access Technologies). Following the cardiovascular instrumentation, the right jugular vein was carefully exposed and cannulated with a bipolar pacing lead/catheter ([…]® Novus; Medtronic). Under fluoroscopic guidance, this pacing lead was advanced normograde into the right ventricle and actively affixed (screwed in) to the apical endocardium. The proximal end of the lead was secured to the pacing device (Kappa 900; Medtronic). Subsequently, the pacemaker was placed/secured in a subcutaneous pocket in the neck. Considering that the heart was exposed via a thoracotomy, a bipolar pacing wire was secured in the right ventricular mid-myocardium. This pacing lead was tunneled/externalized between the scapulae, and used in conjunction with an external impulse generator/pacemaker. The implanted endocardial pacemaker was used as a back-up to the external/epicardial pacemaker. Prior to closure of the chest from the thoracotomy, a chest tube was placed for drainage of any fluid and/or gas that accumulated from the surgical procedure. The tube was aspirated twice daily until the amount of fluid removed was less than 35 mL per aspiration in an approximately 24 hour period. The chest tube was then removed. All animals were administered a prophylactic antibiotic (cefazolin 20 to 50 mg/kg via i.v.) and pain medication (meloxicam at about 0.2 mg/kg via i.v.). If necessary, an additional analgesic was also administered which included a fentanyl patch (25 to 50 mcg/hour). All surgical incisions were closed in layers; the underlying musculature was closed with absorbable sutures and the skin was closed with staples. Following surgery, the animals were allowed to recover for at least 14 days. Cephalexin (20 to 50 mg/kg) was administered orally BID for at least 7 days and meloxicam (0.1 mg/kg) was administered SID orally or subcutaneously for at least 2 days after surgery. […]

dogs = experiment: Toxicological profile of compositions formulated at pH 4 or pH 6, 24 hour infusion at 3 μg/kg/min; type: in vivo; conditions: FIG. 4; for effect of increasing infusate pH from approximately 4 to approximately 6 on toxicology: 1:1 molar donor:CAPTISOL, infused at 3 μg/kg/min
Description: For samples at a pH of 4, the compositions were prepared by admixing a 1:1 molar ratio of the nitroxyl donor:CAPTISOL®, lyophilizing the admixture, then diluting the lyophilized admixture into D5W. For samples at a pH of 6, the compositions were prepared by admixing a 1:1 molar ratio of the nitroxyl donor:CAPTISOL®, lyophilizing the admixture, then diluting the lyophilized admixture into D5W with 5 mM potassium phosphate. Compounds were infused at a rate of 3 μg/kg/min.

[1] = In vitro stability (half-life) in rat plasma; type: in vitro ADME; conditions: male, rat, plasma, pH 7.4, 5 μM, rat plasma pH 7.4 with anticoagulant, 37° C.; read-out: T1/2 (minutes) Rat
Description: Certain compounds from Tables 1 and 2 and CXL-1020 were tested for their stability in phosphate buffered saline (PBS) and plasma. The assay system comprised (i) PBS, or plasma from rat, dog or human (at least 3 donors, male, pooled) at pH 7.4, and (ii) for tests conducted in plasma, an anticoagulant (sodium heparin or sodium citrate). Each test compound (5 μM) was incubated in PBS or plasma at 37° C. on a THERMOMIXER® with shaking. Three samples (n=3) were taken at each of seven sampling time points: 0, 10, 30, 60, 90, 180 and 360 minutes. The samples were immediately combined with 3 volumes (i.e., 3 times the volume of PBS or plasma) of acetonitrile containing 1% formic acid and an internal standard to terminate the reaction. AB SCIEX API 3000 LC-MS/MS analysis of the test compounds was performed without a standard curve. Half-lives (T1/2) of the test compounds were determined from graphs of the percent remaining values using the peak area response ratio. For compounds tested multiple times, the value provided in the Table represents an average of the replicate assays.

[2] = tested on: patients with systolic heart failure; conditions: cited from earlier work

Cc1ccc(S(=O)(=O)NO)o1 [Compound 1, N-Hydroxy-5-methylfuran-2-sulfonamide]
EDV (normal canines): −6 ± 2 % Change from Baseline | ESP (normal canines): −18 ± 2 % Change from Baseline | ESPVR (normal canines): 19 ± 1 % Change from Baseline | HR (normal canines): −4 ± 2 % Change from Baseline | PRSW (normal canines): 12 ± 1 % Change from Baseline | SW (normal canines): −11 ± 4 % Change from Baseline | Tau (normal canines): −6 ± 1 % Change from Baseline

CS(=O)(=O)c1cccc(S(=O)(=O)NO)c1 [Compound 2, N-Hydroxy-3-methanesulfonylbenzene-1-sulfonamide]
EDV (normal canines): −17.41 ± 1.58 % Change from Baseline | ESP (normal canines): −15.22 ± 2.39 % Change from Baseline | ESPVR (normal canines): 25.87 ± 5.04 % Change from Baseline | HR (normal canines): −6.17 ± 5.58 % Change from Baseline | PRSW (normal canines): 12.88 ± 1.12 % Change from Baseline | SW (normal canines): −17.56 ± 2.66 % Change from Baseline | Tau (normal canines): −6.40 ± 7.11 % Change from Baseline | effect of increasing infusate pH from approximately 4 to approximately 6 on toxicology (dogs): improved the toxicology

O=S(=O)(NO)c1ccco1 [Compound 83, N-Hydroxyfuran-2-sulfonamide]
EDV (normal canines): −16.88 ± 1.69 % Change from Baseline | ESP (normal canines): −21.99 ± 3.32 % Change from Baseline | ESPVR (normal canines): 29.33 ± 8.36 % Change from Baseline | HR (normal canines): 2.89 ± 2.94 % Change from Baseline | PRSW (normal canines): 19.79 ± 3.39 % Change from Baseline | SW (normal canines): −19.18 ± 6.70 % Change from Baseline | Tau (normal canines): −10.10 ± 1.56 % Change from Baseline | half-life at 5 μM [1]: 43 min

Cc1ccc(S(=O)(=O)NO)s1 [Compound 84, N-Hydroxy-5-methylthiophene-2-sulfonamide]
EDV (normal canines): −10.99 ± 2.33 % Change from Baseline | ESP (normal canines): −16.85 ± 2.33 % Change from Baseline | ESPVR (normal canines): 50.71 ± 8.14 % Change from Baseline | HR (normal canines): 4.31 ± 2.98 % Change from Baseline | PRSW (normal canines): 17.70 ± 2.35 % Change from Baseline | SW (normal canines): −13.98 ± 1.14 % Change from Baseline | Tau (normal canines): −9.60 ± 6.06 % Change from Baseline | half-life at 5 μM [1]: 65 min

CS(=O)(=O)c1ccccc1S(=O)(=O)NO [CXL-1020, N-hydroxy-2-methanesulfonylbenzene-1-sulfonamide, reference compound]
EDV (normal canines): −20.51 ± 7.63 % Change from Baseline | ESP (normal canines): −17.79 ± 3.09 % Change from Baseline | ESPVR (normal canines): 28.25 ± 8.69 % Change from Baseline | HR (normal canines): 6.71 ± 4.72 % Change from Baseline | PRSW (normal canines): 12.60 ± 2.96 % Change from Baseline | SW (normal canines): −13.96 ± 5.51 % Change from Baseline | Tau (normal canines): −6.58 ± 4.53 % Change from Baseline | hemodynamic effects in patients with systolic heart failure ([2]; intravenous aqueous solution at pH=4): reduced both left and right heart filling pressures and systemic vascular resistance, while increasing cardiac and stroke volume index | side effects at threshold doses needed to produce hemodynamic effects ([2]; intravenous): unacceptable levels of inflammatory irritation at and distal to the intravenous insertion site | effect of increasing infusate pH from approximately 4 to approximately 6 on toxicology (dogs): improved the toxicology | improvement of inflammatory profile on increasing infusate pH from 4 to 6 (dogs; dogs): approximately 3 fold

— US10245249B2, “Pharmaceutical compositions comprising nitroxyl donors” (Cardioxyl Pharmaceuticals, Inc., priority 2013, dated 2019)
